Target: T1, PARP-1 (Homo sapiens, UniProt P09874)
T1 construct: gene PARP1
Assay: PARP-1 colorimetric assay kit (BPS Bioscience […])
Assay type: biochemical

T1 sequence (P09874 2-1014): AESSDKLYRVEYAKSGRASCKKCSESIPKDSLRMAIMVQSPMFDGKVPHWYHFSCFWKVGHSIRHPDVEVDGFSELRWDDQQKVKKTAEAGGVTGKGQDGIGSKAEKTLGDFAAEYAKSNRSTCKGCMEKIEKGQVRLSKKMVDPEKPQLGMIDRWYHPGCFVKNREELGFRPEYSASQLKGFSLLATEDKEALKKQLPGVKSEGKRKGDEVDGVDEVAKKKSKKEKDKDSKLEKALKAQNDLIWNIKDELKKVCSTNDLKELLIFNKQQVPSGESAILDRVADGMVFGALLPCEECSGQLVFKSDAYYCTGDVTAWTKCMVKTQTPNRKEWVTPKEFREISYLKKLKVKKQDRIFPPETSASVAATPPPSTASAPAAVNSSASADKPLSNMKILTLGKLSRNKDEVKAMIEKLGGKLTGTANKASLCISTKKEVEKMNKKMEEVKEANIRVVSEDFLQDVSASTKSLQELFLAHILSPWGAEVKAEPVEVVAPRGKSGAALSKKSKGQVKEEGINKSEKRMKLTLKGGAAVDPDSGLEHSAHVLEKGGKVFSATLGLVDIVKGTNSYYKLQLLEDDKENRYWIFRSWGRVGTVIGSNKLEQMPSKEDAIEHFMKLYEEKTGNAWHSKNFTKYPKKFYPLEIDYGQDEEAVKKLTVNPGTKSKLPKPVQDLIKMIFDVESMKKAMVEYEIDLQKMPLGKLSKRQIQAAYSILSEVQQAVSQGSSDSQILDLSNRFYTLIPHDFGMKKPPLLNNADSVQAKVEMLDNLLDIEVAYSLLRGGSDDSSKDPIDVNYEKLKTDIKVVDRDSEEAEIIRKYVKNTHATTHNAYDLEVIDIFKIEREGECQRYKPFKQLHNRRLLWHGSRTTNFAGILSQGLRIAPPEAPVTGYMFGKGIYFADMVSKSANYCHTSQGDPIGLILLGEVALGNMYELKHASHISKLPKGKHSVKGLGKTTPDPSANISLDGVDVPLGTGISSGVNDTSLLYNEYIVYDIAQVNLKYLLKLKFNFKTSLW

Compound: C/C=C(/C)C(=O)OC1=C(C(C)CCC=C(C)C)C(=O)C=C(C)C1=O (stereo not shown) [perezone angelate]
- IC50: 5.25 µM
